Results taken from US5654290A, “Polyunsaturated fatty acid based drugs” (Institut National de la Sante et de la Recherche Medicale, priority 1992, dated 1997).

What was measured:
[1] = tested on: alpha2 -adrenergic receptor; settings: platelet membranes; cited from earlier work
[2] = tested on: TXA2 /PGH2 receptor; settings: whole platelets or solubilized platelet membranes; cited from earlier work
[3] = tested on: platelets; settings: concentrations which do not bring the TXA2/PGH2 receptor into play; cited from earlier work
[4] = tested on: platelets; settings: concentrations which do not bring the TXA2/PGH2 receptor into play; cited from earlier work; remark: listed apart in the source
[5] = tested on: TXA2 /PGH2 receptor; settings: cited from earlier work
[6] = tested on: platelets; settings: cited from earlier work
[7] = tested on: brain; assay: Distribution of the radioactivity between the lipid classes of the brain after intravenous injection of lyso-PCDHA or non-esterified DHA; format: in vivo, rat; settings: for radioactivity in OTHERS of the brain / radioactivity in AG of the brain / radioactivity in DG of the brain / radioactivity in LN of the brain / radioactivity in Lyso-PC of the brain / radioactivity in MG of the brain / radioactivity in PC of the brain / radioactivity in PE of the brain / radioactivity in PS of the brain / radioactivity in Pi of the brain / radioactivity in TG of the brain: injection of Lyso-PCDHA
Text: (§1) The animal studied is a 20-day-old rat in which the cerebral lipid metabolism is at its peak.
(§2) The lyso-PC's are labelled on the fatty acid and the choline, attached to albumin and administered intravenously (50). […] It therefore appears that the lyso-PCDHA's attached to albumin constitute a particularly preferred form of supply of DHA to the developing brain.

[8] = tested on: liver; assay: Capture by the liver, in rats, of lyso-PCDHA and non-esterified DHA; format: in vivo; settings: 20-day-old rat, intravenous; lyso-PCDHA vs non-esterified DHA
Text: (§3) FIG. 3 represents the variation of the radio-activity recovered in the total lipids: A from the brain, B from the kidney, C from the heart and D from the liver, after injecting tritiated DHA in free form (black circle) or in the form of 2-DHA-1-lyso-PC (black triangle).
as §1, §2

[9] = tested on: heart; assay: Capture by the heart, in rats, of lyso-PCDHA and non-esterified DHA; format: in vivo; settings: 20-day-old rat, intravenous; lyso-PCDHA vs non-esterified DHA
Text: as §3, §1, §2

[10] = tested on: brain; assay: Capture by the brain, in rats, of lyso-PC's; format: in vivo; settings: 20-day-old rat, intravenous, attached to albumin; compared with lyso-PC's comprising 18:1, 18:2 and 20:4
Text: as §3, §1, §2

[11] = tested on: kidney; assay: Capture by the kidney, in rats, of lyso-PCDHA and non-esterified DHA; format: in vivo; settings: 20-day-old rat, intravenous; lyso-PCDHA vs non-esterified DHA
Text: as §3, §1, §2

[12] = incorporation in vitro into the platelet lipid reserves, by means of albumin

CC/C=C\C/C=C\C/C=C\C/C=C\C/C=C\CCCC(=O)O [20:5n-3, eicosapentanoic acid]
effect on binding of yohimbine to alpha2-adrenergic receptor [1]: do not modify binding of yohimbine
alteration of the TXA2 /PGH2 receptor [2]: specifically alter the TXA2 /PGH2 receptor
effect on platelet aggregation induced by thrombin [3]: none of these fatty acids affects the platelet aggregation
effect on platelet aggregation induced by ionophore A 23187 [4]: none of these fatty acids affects the platelet aggregation
affinity of U 46.619 for its receptor [5, 12]: decrease in the affinity of the agonist for its receptor
inhibition of specific binding of U 46.619 to washed platelets ([5]; non-esterified fatty acid): competitively inhibit
aggregability of the platelets in response to U 46.619 [6, 12]: loss of aggregability of the platelets in response to U 46.619
inhibition of platelet aggregation induced by U 46.619 ([6]; non-esterified fatty acid): competitively inhibit platelet aggregation induced by U 46.619

CC/C=C\C/C=C\C/C=C\C/C=C\C/C=C\C/C=C\CCC(=O)OC(CO)COP(=O)([O-])OCC[N+](C)(C)C (stereo not shown) [lyso-PCDHA, 1-lyso-2-DHA-glycerophosphocholine]
esterification in the phosphatidylethanolamines ([7]; brain, rat, after injection): very rapidly, a differential esterification is produced in the phosphatidylethanolamines
reacylation of DHA in the phosphatidylcholines ([7]; brain, rat, first stages after the injection): low and is visible only in the first stages after the injection
radioactivity in OTHERS of the brain [7]: 3.7 % of the radioactivity of the total lipids
radioactivity in AG of the brain ([7]; 2.5 min): 15.3 % of the radioactivity of the total lipids
radioactivity in DG of the brain ([7]; 2.5 min): 10.8 % of the radioactivity of the total lipids
radioactivity in LN of the brain ([7]; 2.5 min): 29.3 % of the radioactivity of the total lipids
radioactivity in Lyso-PC of the brain ([7]; 2.5 min): 4.1 % of the radioactivity of the total lipids
radioactivity in MG of the brain ([7]; 2.5 min): 2.2 % of the radioactivity of the total lipids
radioactivity in PC of the brain ([7]; 2.5 min): 25.6 % of the radioactivity of the total lipids
radioactivity in PE of the brain ([7]; 2.5 min): 28.2 % of the radioactivity of the total lipids
radioactivity in PS of the brain ([7]; 2.5 min): 3.9 % of the radioactivity of the total lipids
radioactivity in Pi of the brain ([7]; 2.5 min): 8.9 % of the radioactivity of the total lipids
radioactivity in TG of the brain ([7]; 2.5 min): 1.0 % of the radioactivity of the total lipids
radioactivity in AG of the brain ([7]; 5 min): 21.2 % of the radioactivity of the total lipids
radioactivity in DG of the brain ([7]; 5 min): 9.3 % of the radioactivity of the total lipids
radioactivity in LN of the brain ([7]; 5 min): 35.3 % of the radioactivity of the total lipids
radioactivity in Lyso-PC of the brain ([7]; 5 min): 0.4 % of the radioactivity of the total lipids
radioactivity in MG of the brain ([7]; 5 min): 2.3 % of the radioactivity of the total lipids
radioactivity in OTHERS of the brain ([7]; 5 min): 11.4 % of the radioactivity of the total lipids
radioactivity in PC of the brain ([7]; 5 min): 17.8 % of the radioactivity of the total lipids
radioactivity in PE of the brain ([7]; 5 min): 26.3 % of the radioactivity of the total lipids
radioactivity in PS of the brain ([7]; 5 min): 5.3 % of the radioactivity of the total lipids
radioactivity in Pi of the brain ([7]; 5 min): 3.4 % of the radioactivity of the total lipids
radioactivity in TG of the brain ([7]; 5 min): 2.5 % of the radioactivity of the total lipids
radioactivity in AG of the brain ([7]; 6.5 min): 17.2 % of the radioactivity of the total lipids
radioactivity in DG of the brain ([7]; 6.5 min): 9.4 % of the radioactivity of the total lipids
radioactivity in LN of the brain ([7]; 6.5 min): 31.6 % of the radioactivity of the total lipids
radioactivity in Lyso-PC of the brain ([7]; 6.5 min): 1.2 % of the radioactivity of the total lipids
radioactivity in MG of the brain ([7]; 6.5 min): 2.7 % of the radioactivity of the total lipids
radioactivity in PC of the brain ([7]; 6.5 min): 26.2 % of the radioactivity of the total lipids
radioactivity in PE of the brain ([7]; 6.5 min): 28.1 % of the radioactivity of the total lipids
radioactivity in PS of the brain ([7]; 6.5 min): 5.3 % of the radioactivity of the total lipids
radioactivity in Pi of the brain ([7]; 6.5 min): 3.7 % of the radioactivity of the total lipids
radioactivity in TG of the brain ([7]; 6.5 min): 2.3 % of the radioactivity of the total lipids
radioactivity in AG of the brain ([7]; 15 min): 13.9 % of the radioactivity of the total lipids
radioactivity in DG of the brain ([7]; 15 min): 5.8 % of the radioactivity of the total lipids
radioactivity in LN of the brain ([7]; 15 min): 23.7 % of the radioactivity of the total lipids
radioactivity in Lyso-PC of the brain ([7]; 15 min): 0.2 % of the radioactivity of the total lipids
radioactivity in MG of the brain ([7]; 15 min): 1.8 % of the radioactivity of the total lipids
radioactivity in OTHERS of the brain ([7]; 15 min): 2.6 % of the radioactivity of the total lipids
radioactivity in PC of the brain ([7]; 15 min): 26.8 % of the radioactivity of the total lipids
radioactivity in PE of the brain ([7]; 15 min): 38.9 % of the radioactivity of the total lipids
radioactivity in PS of the brain ([7]; 15 min): 4.6 % of the radioactivity of the total lipids
radioactivity in Pi of the brain ([7]; 15 min): 3.2 % of the radioactivity of the total lipids
radioactivity in TG of the brain ([7]; 15 min): 2.3 % of the radioactivity of the total lipids
radioactivity in AG of the brain ([7]; 30 min): 11 % of the radioactivity of the total lipids
radioactivity in DG of the brain ([7]; 30 min): 4 % of the radioactivity of the total lipids
radioactivity in LN of the brain ([7]; 30 min): 17.8 % of the radioactivity of the total lipids
radioactivity in Lyso-PC of the brain ([7]; 30 min): 0 % of the radioactivity of the total lipids
radioactivity in MG of the brain ([7]; 30 min): 0.7 % of the radioactivity of the total lipids
radioactivity in OTHERS of the brain ([7]; 30 min): 3.8 % of the radioactivity of the total lipids
radioactivity in PC of the brain ([7]; 30 min): 24.1 % of the radioactivity of the total lipids
radioactivity in PE of the brain ([7]; 30 min): 46.4 % of the radioactivity of the total lipids
radioactivity in PS of the brain ([7]; 30 min): 5.0 % of the radioactivity of the total lipids
radioactivity in Pi of the brain ([7]; 30 min): 2.6 % of the radioactivity of the total lipids
radioactivity in TG of the brain ([7]; 30 min): 2.1 % of the radioactivity of the total lipids
radioactivity in AG of the brain ([7]; 60 min): 10.0 % of the radioactivity of the total lipids
radioactivity in DG of the brain ([7]; 60 min): 2.6 % of the radioactivity of the total lipids
radioactivity in LN of the brain ([7]; 60 min): 16.7 % of the radioactivity of the total lipids
radioactivity in Lyso-PC of the brain ([7]; 60 min): 0 % of the radioactivity of the total lipids
radioactivity in MG of the brain ([7]; 60 min): 0.4 % of the radioactivity of the total lipids
radioactivity in OTHERS of the brain ([7]; 60 min): 5.3 % of the radioactivity of the total lipids
radioactivity in PC of the brain ([7]; 60 min): 24.9 % of the radioactivity of the total lipids
radioactivity in PE of the brain ([7]; 60 min): 49.2 % of the radioactivity of the total lipids
radioactivity in PS of the brain ([7]; 60 min): 3.9 % of the radioactivity of the total lipids
radioactivity in Pi of the brain ([7]; 60 min): 2.6 % of the radioactivity of the total lipids
radioactivity in TG of the brain ([7]; 60 min): 1.4 % of the radioactivity of the total lipids
capture by the liver [8]: do not capture the lyso-PCDHA's as effectively as the non-esterified DHA
capture by the heart [9]: do not capture the lyso-PCDHA's as effectively as the non-esterified DHA
capture by the brain [10]: particularly well captured by the brain
capture by the kidney [11]: captures the two forms of supply in essentially the same manner
